Measured values reported in publication PMC9120017, “Inhibition mechanism of the chloride channel TMEM16A by the pore blocker 1PBC” (Nature Communications, 2022).
Where two headings read alike, the source gives them in different places.

Molecular target: T1, mouse TMEM16A mutant Q649A (Mus musculus, UniProt Q8BHY3, Q649A)
T1 construct: expressed in transfected cells; host or cells: HEK293T
T1 sequence (Q8BHY3 1-960 Q649A): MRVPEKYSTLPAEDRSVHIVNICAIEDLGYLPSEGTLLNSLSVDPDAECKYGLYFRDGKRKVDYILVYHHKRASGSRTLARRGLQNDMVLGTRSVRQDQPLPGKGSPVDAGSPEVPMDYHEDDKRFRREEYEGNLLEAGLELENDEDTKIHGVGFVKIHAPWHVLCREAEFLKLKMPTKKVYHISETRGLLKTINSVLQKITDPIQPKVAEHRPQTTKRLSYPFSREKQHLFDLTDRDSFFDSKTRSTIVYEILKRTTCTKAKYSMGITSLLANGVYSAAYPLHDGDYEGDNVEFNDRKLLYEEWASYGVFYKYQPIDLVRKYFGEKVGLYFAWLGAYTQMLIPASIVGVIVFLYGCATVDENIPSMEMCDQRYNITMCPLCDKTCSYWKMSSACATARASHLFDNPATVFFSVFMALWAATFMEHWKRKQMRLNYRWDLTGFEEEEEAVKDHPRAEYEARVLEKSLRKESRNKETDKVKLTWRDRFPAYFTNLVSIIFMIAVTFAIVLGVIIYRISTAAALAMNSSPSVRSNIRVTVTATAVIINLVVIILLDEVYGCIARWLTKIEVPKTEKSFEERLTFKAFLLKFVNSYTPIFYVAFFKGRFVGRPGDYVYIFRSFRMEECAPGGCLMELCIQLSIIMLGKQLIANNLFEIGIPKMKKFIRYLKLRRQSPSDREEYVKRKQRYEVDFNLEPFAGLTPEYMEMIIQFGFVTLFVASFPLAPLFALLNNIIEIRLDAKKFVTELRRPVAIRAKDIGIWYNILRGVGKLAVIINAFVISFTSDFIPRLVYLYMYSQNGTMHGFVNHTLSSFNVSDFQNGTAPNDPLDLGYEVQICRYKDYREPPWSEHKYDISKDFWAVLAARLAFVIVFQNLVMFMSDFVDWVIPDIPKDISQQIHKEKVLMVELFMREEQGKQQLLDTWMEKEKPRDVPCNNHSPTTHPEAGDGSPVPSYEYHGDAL
Experiment: Inside-out patch recording of 1PBC block, constitutively active mutant Q649A
Assay type: cell-based
Conditions: for remaining activity at 3 µM: 3 µM 1PBC; for remaining activity at 10 µM: 10 µM 1PBC; for remaining activity at 30 µM: 30 µM 1PBC
Protocol: HEK293T cells (ATCC CRL-1573) were maintained in Dulbecco’s modified Eagle’s medium (DMEM; Sigma-Aldrich) supplemented with 10 U ml^−1 penicillin, 0.1 mg ml^−1 streptomycin (Sigma-Aldrich), 2 mM L-glutamine (Sigma-Aldrich), and 10% FBS (Sigma-Aldrich) in a humidified atmosphere containing 5% CO2 at 37 °C. HEK293S GnTI^− cells (ATCC CRL-3022) were maintained in HyClone HyCell TransFx-H medium (GE Healthcare) supplemented with 10 U ml^−1 penicillin, 0.1 mg ml^−1 streptomycin, 4 mM L-glutamine, 0.15% poloxamer 188 (Sigma-Aldrich), and 1% FBS in an atmosphere containing 5% CO2 at 185 rpm at 37 °C. The ac splice variant of mouse TMEM16A (UniProt ID: Q8BHY3), mouse TMEM16B (UniProt ID: Q8CFW1), or mouse TMEM16F (UniProt ID: Q6P9J9) bearing a 3C cleavage site, a Venus YFP, a Myc tag, and a Streptavidin-binding peptide (SBP) downstream of the open reading frame in a modified pcDNA3.1 vector (Invitrogen) were used as described previously[21],[31]. Mutations were introduced using a modified QuikChange method[58] and were verified by sequencing.
HEK293T cells were transfected with 3–4 μg DNA per 6 cm Petri dish using the calcium phosphate co-precipitation method and were used within 24–96 h after transfection. Recordings were performed on inside-out patches excised from HEK293T cells expressing the construct of interest. Patch pipettes were pulled from borosilicate glass capillaries (O.D. 1.5 mm, I.D. 0.86 mm, Sutter Instrument) and were fire-polished with a microforge (Narishige) before use. Pipette resistance was typically 3–8 MΩ when filled with the recording solutions detailed below. Seal resistance was typically 4 GΩ or higher. Voltage-clamp recordings were made using Axopatch 200B, Digidata 1550, and Clampex 10.7 (Molecular Devices). Analog signals were filtered with the in-built 4-pole Bessel filter at 10 kHz and were digitized at 20 kHz. Solution exchange was achieved using a gravity-fed system through a theta glass pipette mounted on an ultra-fast piezo-driven stepper (Siskiyou). […] All recordings were performed at 20 °C.
A symmetrical ionic condition was used throughout. Stock solution with Ca^2+-EGTA contained 150 mM NaCl, 5.99 mM Ca(OH)2, 5 mM EGTA, and 10 mM HEPES at pH 7.40. Stock solution with EGTA contained 150 mM NaCl, 5 mM EGTA, and 10 mM HEPES at pH 7.40. Free Ca^2+ concentrations were adjusted by mixing the stock solutions at the required ratios calculated using the WEBMAXC program (http://web.stanford.edu/~cpatton/webmaxcS.htm). Patch pipettes were filled with the stock solution with Ca^2+-EGTA, which has a free Ca^2+ concentration of 1 mM. 1PBC (ChemBridge) stock was reconstituted in anhydrous DMSO (Sigma-Aldrich) at 100 mM and stored at −20 °C. Working solutions with 1PBC were prepared by serial dilution. Unless otherwise stated, experiments were performed at a saturating Ca^2+ concentration as shown in Supplementary Table 1 and the primary data were corrected for current rundown as described previously[21],[25].
Concentration-response relations, obtained from the ratio of the I-V plots before and after the application of the blocker, were fitted to the Hill equation,1 I/Imax=1/1+IC50/[blocker]^h where I/Imax is the normalized current responses, IC50 defines the concentration at which inhibition is at its half-maximum, and h is the Hill coefficient.

[1] = 0 mV, 2 µM Ca2+, read-out: I/Imax
[2] = 0 mV, zero Ca2+, read-out: I/Imax

In the case of N#Cc1c(C(F)(F)F)cc(O)n2c1nc1ccccc12 [1PBC], the “I/Imax_+80mV” value (0Ca, 3 μM 1PBC) is reported as 0.8995, the I/Imax_-80mV (0Ca, 3 μM 1PBC) is reported as 0.9942 and the “I/Imax_+80mV” value (0Ca, 10 μM 1PBC) is reported as 0.7384. The I/Imax_-80mV (0Ca, 10 μM 1PBC) was 0.9446, the “I/Imax_+80mV” value (0Ca, 30 μM 1PBC) was 0.483 and the I/Imax_-80mV (0Ca, 30 μM 1PBC) was 0.815. For the same compound, the “I/Imax_+80mV” value (0Ca, 100 μM 1PBC) was 0.2577, the I/Imax_-80mV (0Ca, 100 μM 1PBC) was 0.578 and the remaining activity at 1 µM (1 µM 1PBC, 0 mV, 2 µM Ca2+, read-out: I/Imax) was 80%. The remaining activity at 3 µM [1] was 57.9%, the remaining activity at 3 µM [2] was 92.9% and the remaining activity at 10 µM [1] was 31.4%. The remaining activity at 10 µM [2] was 84.7%, the remaining activity at 30 µM [1] was 13.7% and the remaining activity at 30 µM [2] was 63.9%. The remaining activity at 100 µM (100 µM 1PBC, 0 mV, zero Ca2+, read-out: I/Imax) was 39.9%, the “I/Imax_+80mV” value (Ca, 1 μM 1PBC) was 0.7635 and the I/Imax_-80mV (Ca, 1 μM 1PBC) was 0.9086. The “I/Imax_+80mV” value (Ca, 3 μM 1PBC) was 0.5067, the I/Imax_-80mV (Ca, 3 μM 1PBC) was 0.7508 and the “I/Imax_+80mV” value (Ca, 10 μM 1PBC) was 0.2578. The I/Imax_-80mV (Ca, 10 μM 1PBC) was 0.4875, the “I/Imax_+80mV” value (Ca, 30 μM 1PBC) was 0.09866 and the I/Imax_-80mV (Ca, 30 μM 1PBC) was 0.2347. For the same compound, the “Decrease in potency of block, Ca2+-free form vs Ca2+-bound state” value (zero vs 2 µM Ca2+) was “about ten-fold”.
